Peptide text beside a SMILES is read from it.
Experiments:
[1] = human serum diluted 1:4 in RPMI 1640, 37 °C, peptide 10 μg/ml from DMSO stock, 48 h time course, ESI-MS peak area normalized to Angiotensin I
Description: Human serum was diluted 1:4 in Gibco RPMI 1640 media (ThermoFisher Scientific, Cat. No. 11–875–093) and incubated at 37 °C for 15 min before peptide stock was added at final concentration of 10 μg/ml. Time points were taken at room temperature and mixed with 200 μl of 3% TFA before a 15 min incubation on ice. Samples were centrifuged at 16,000g for 2.5 min and the supernatant was prepared for C18 desalting by adding 100 μl of 20% acetonitrile, 2% TFA before storage at −20 °C overnight. Samples were processed through Pierce C18 spin columns (ThermoFisher Scientific, Cat. No. 89870) according to the manufacturer’s instructions. Desalted samples were dried under nitrogen and stored at −20 °C until mass spectrometry analysis.
For MALDI-TOF-MS analysis, samples were reconstituted in 200 μl of 0.1% formic acid. Samples were diluted 1:10 in a MALDI matrix containing a 50 fmol/μl solution of Angiotensin I as a control, spotted onto the plate at a volume of 1 μl, and run on an Axima Performance MALDI TOF/TOF mass spectrometer (Shimadzu Scientific Instruments). Data was visualized with Axima Launchpad 2.8 software (Shimadzu Scientific Instruments). For ESI-MS analysis, samples were run on an Orbitrap Exploris 480 (ThermoFisher Scientific). […] ThermoFisher’s Xcalibur 4.0 Data System was used for peptide quantification via peak area (normalized based on Angiotensin I abundance).

[2] = system: OVCAR8 cells and human PBMCs co-culture, TNFα secretion; test: OVCAR8:PBMC co-culture, secreted TNFα (ELISA); format: cell-based; details: 1:10 OVCAR8:PBMC, 24 h, MN1.4 500, 100 or 10 μM, rPD-L1 1 μM
Description: The concentration of PBMCs required for a 1:10 OVCAR8:PBMC ratio was calculated from the OVCAR8 concentration.

With CC[C@H](C)[C@H](NC(=O)[C@H](CCSC)NC(=O)[C@H](CS)NC(=O)[C@H](CCCNC(=N)N)NC(=O)[C@H](Cc1ccc(O)cc1)NC(C)=O)C(=O)N[C@@H](CO)C(=O)N[C@@H](Cc1ccc(O)cc1)C(=O)NCC(=O)NCC(=O)N[C@@H](C)C(=O)N[C@@H](CC(=O)O)C(=O)N[C@@H](Cc1ccc(O)cc1)C(=O)N[C@@H](CCCCN)C(=O)N[C@@H](CCCNC(=N)N)C(=O)N[C@H](C(=O)N[C@H](C(=O)N[C@H](C(N)=O)C(C)C)[C@@H](C)O)[C@@H](C)CC the serum modification products (MALDI-TOF-MS) was 119 Da.
With CC[C@H](C)[C@@H]1NC(=O)[C@H](CCSC)NC(=O)[C@H](C)NC(=O)[C@H](CCCNC(=N)N)NC(=O)[C@@H](NC(C)=O)CSSC[C@@H](C(N)=O)NC(=O)[C@H]([C@@H](C)O)NC(=O)[C@H]([C@@H](C)CC)NC(=O)[C@H](CCCNC(=N)N)NC(=O)[C@H](CCCCN)NC(=O)[C@H](Cc2ccc(O)cc2)NC(=O)[C@H](CC(=O)O)NC(=O)[C@H](C)NC(=O)CNC(=O)CNC(=O)[C@H](Cc2ccc(O)cc2)NC(=O)[C@H](CO)NC1=O [MN1.2] (HELM PEPTIDE1{[ac].C.R.A.M.I.S.Y.G.G.A.D.Y.K.R.I.T.C.[am]}$PEPTIDE1,PEPTIDE1,2:R3-18:R3$$$V2.0) the “serum stability, degradation after 48 h” value [1] was “detected at very low levels”.
For Ac-YRCMISYGGADEKRITV-NH2 [MN_Null], the “TNFα levels compared to untreated co-culture control” value [2] was “less immunosuppressive activity as compared to MN1.4”.
